The text below walks through data of PMC5520492, “Inhibition of DNA2 nuclease as a therapeutic strategy targeting replication stress in cancer cells” (Oncogenesis, 2017).

Assay [1] has as its system U2OS cells containing DR-GFP reporter. The assay is described as follows: DR-GFP gene conversion (HR) reporter assay. It counts as cell-based, human. The conditions noted are these: 24-h treatment. The method, then:
(§1) Figure 4 NSC-105808 inhibits HR repair and DSB end resection. (a) Analysis of HR efficiency with the DR-green fluorescent protein (GFP) assay. Representative images of flow cytometry analysis and bar graph showing percentage of GFP cells from at least three independent experiments. Each value represents the mean±s.d. (b, c) Analysis of RPA phosphorylation in U2OS cells treated with NSC-105808 (2 h, 0.3 μM) and/or camptothecin (CPT; 2 h, 1 μM). (b) Representative images of cells subjected to immunofluorescent staining of p-RPA and bar graph showing percentage of cells with positive p-RPA staining from three independent experiments. Each value represents the mean±s.d. (c) Western blot analysis of chromatin fraction with the indicated antibodies. (d) Analysis of colony formation by FANCD2 (+/+) and FANCD2 (−/−) cells treated with cisplatin and/or NSC-105808. Each value is relative to the untreated control group of each cell line. The graph represents the mean±s.e.m. from three independent experiments. *P<0.01.
The DR-green fluorescent protein, pCAGGS and pCBASce plasmids were kindly provided by Dr Maria Jasin (Memorial Sloan-Kettering Cancer Center, New York, NY, USA). […]
The GFP expressing plasmid (pEGFP-C1) was used for transfection efficiency control. […] Efficiency of HR and SSA was calculated by normalizing I-SceI-induced GFP expression with EGFP transfection-induced GFP expression. […]

Assay [2] addresses T1, Bloom syndrome (BLM) (Homo sapiens, UniProt P54132).
T1 construct: made in house
Kind of assay: dsDNA unwinding by BLM. The assay is classed as biochemical. The conditions noted are these: 10 µM. The method, then:
Figure S2. […] (a) Analysis of 5’ flap processing by hDNA2 in presence of the compounds at the indicated concentration. DNA2 (2.5 nM) was incubated with the Y DNA substrate (5 nM ends) and the indicated concentration of inhibitor. (b) Plots showing quantitation of the experiments shown in a. Plotted are the average data from three independent experiments with the error bars representing one standard deviation. (c) Analysis of dsDNA unwinding by BLM. BLM (4, 8 and 16 nM), RPA (100 nM) and internally radiolabelled dsDNA (0.5 nM ends) was incubated for 20 min at 37^ºC in presence of either DMSO or NSC-105808 (10 µM) and the products were resolved on a 1% agarose gel. (d) Plots showing quantitation of the experiments shown in c. Plotted are the average data from three independent experiments with the error bars representing one standard deviation. (e) Analysis of the degradation of a 2 kb internally labeled dsDNA (0.5 nM ends) by EXO1 (5 nM) in presence of NSC-105808 (10 µM). (f) Plot showing quantitation of the experiment in e. […] 100 nM hDNA2 was incubated with γ^32P-ATP in the presence of oligonucleotide ssDNA (200 nM) for 20 minutes at 37^ºC in presence of either DMSO or inhibitor (10 µM) and the products were resolved on a TLC plate. (h) Analysis of hDNA2 binding to DNA. […]

Assay [3] concerns FANCD2−/− cells. Kind of assay: Colony formation with cisplatin in FANCD2-deficient cells. The assay is classed as cell-based. The conditions noted are these: cisplatin 0.3125 µM, NSC-105808 […]. The method, then:
as §1
DNA2 knockdown cells were seeded at low density; cells were then left for 2 weeks to allow colonies to form. Cells were stained with 2% methylene blue/50% ethanol, and colonies containing 50 or more cells were counted. […] Colonies were fixed, stained, and scored ten days after treatment.

For assay [4], the system named is AsPC-1, PANC-1 versus DT-PD59 cells. Kind of assay: MTT proliferation, pancreatic cell lines. The assay is classed as cell-based, human. The conditions noted are these: 48-h treatment. On the procedure:
(§2) Figure 5 Oncogene induction enhances sensitivity of cancer cells to NSC-105808. (a-e) Graphs showing proliferation of indicated cell lines in response to a 48-h treatment with the indicated concentrations of NSC-105808. Proliferation relative to cells treated with vehicle alone was determined by the 3-(4,5-dimethylthiazol-2-yl)-2,5-diphenyltetrazolium bromide (MTT) assay. Each value represents the mean±s.e.m. from three independent experiments. (a) Proliferation of control pancreatic epithelial cells DT-PD59 and transformed pancreatic cancer cells AsPC-1 and PANC-1. (b) Proliferation of normal breast epithelial cells MCF10A and breast cancer cells Hs578T and BT549. (c) Proliferation of MCF10A cells with or without H-Ras expression. H-Ras was induced with doxycycline (2 μg/ml). […]
(§3) Cell proliferation was measured by 3-(4,5-dimethylthiazol-2-yl)-2,5-diphenyltetrazolium bromide (Sigma) reduction (Supplementary Materials and Methods).
(§4) To determine the cell proliferation rate, 1000 cells/well were seeded in a 96-well plate in a total volume of 100 µl in triplicate in each experiment. […] Plates were read at 490 nm and 650 nm (background) in a
(§5) microplate reader (Molecular Devices). After the subtraction of background, cell viability was calculated as fold change relative to control cells.

Assay [5] relates to Hs578T and BT549 versus MCF10A cells. Kind of assay: MTT proliferation, breast cell lines. The assay is classed as cell-based, human. The conditions noted are these: 48-h treatment. The method, then:
as §2, §3, §4, §5

T1 sequence (P54132 whole entry): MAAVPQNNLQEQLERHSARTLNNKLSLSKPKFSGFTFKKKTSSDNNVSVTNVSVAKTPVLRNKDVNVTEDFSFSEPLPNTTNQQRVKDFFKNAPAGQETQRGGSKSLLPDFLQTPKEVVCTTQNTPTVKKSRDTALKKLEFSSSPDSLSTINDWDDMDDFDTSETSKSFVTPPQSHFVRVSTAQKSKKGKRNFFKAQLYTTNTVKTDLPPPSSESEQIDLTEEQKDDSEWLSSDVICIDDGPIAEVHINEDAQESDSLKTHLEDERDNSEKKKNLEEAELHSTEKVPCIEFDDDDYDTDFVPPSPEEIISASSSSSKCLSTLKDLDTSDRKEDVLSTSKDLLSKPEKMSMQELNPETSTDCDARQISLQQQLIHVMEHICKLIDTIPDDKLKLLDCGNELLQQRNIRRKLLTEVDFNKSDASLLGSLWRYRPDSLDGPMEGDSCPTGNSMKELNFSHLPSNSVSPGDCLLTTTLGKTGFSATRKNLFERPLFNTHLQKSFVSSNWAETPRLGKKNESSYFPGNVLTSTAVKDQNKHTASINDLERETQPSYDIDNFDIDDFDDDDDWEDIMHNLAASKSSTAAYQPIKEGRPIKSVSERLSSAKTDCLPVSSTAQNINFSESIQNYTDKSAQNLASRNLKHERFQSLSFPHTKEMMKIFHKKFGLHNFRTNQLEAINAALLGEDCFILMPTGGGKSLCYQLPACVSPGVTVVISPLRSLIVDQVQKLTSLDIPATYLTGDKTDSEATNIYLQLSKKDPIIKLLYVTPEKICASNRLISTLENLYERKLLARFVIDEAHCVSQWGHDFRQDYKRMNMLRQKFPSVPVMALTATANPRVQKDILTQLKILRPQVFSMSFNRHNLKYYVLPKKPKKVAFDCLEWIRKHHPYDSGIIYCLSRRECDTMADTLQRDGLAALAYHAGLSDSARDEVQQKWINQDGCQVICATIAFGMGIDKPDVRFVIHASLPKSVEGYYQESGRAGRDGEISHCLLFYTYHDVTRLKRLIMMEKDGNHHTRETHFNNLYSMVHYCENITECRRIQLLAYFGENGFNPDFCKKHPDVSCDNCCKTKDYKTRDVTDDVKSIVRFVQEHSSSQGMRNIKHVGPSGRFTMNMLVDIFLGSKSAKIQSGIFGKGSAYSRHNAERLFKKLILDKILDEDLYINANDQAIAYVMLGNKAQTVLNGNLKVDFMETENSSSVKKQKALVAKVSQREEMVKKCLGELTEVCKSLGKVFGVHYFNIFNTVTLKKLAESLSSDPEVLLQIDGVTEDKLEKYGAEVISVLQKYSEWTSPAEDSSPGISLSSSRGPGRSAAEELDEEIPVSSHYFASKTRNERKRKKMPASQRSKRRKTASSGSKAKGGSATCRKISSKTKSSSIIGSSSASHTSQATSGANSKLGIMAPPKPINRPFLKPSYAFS

As to `NC1=C(Br)C(=O)c2ncccc2C1=O` [NSC-105808, 6-amino-7-bromoquinoline-5,8-dione], the “DSB repair by gene conversion” value in assay [1] is “significantly reduced”. Moreover, the “Effect on ability of Bloom syndrome to unwind DNA” value in assay [2] is listed as “no effect”. The “Cisplatin sensitivity of FANCD2−/− cells (colony formation)” value in assay [3] was “lessened the cisplatin sensitivity”. For the same compound, the “Sensitivity of transformed pancreatic cancer cell lines compared with non-transformed DT-PD59” value in assay [4] is recorded as “more sensitive”. Further, in assay [5], the “Sensitivity of transformed breast cancer cells compared with MCF10A” value is recorded as “more sensitive”.
